Measurements reported in US4684664A, “Derivatives of β-(4-isocyano-1,2,3,4-diepoxycyclopentyl) acrylic acid” (Kureha Kagaku Kogyo Kabushiki Kaisha, priority 1984, dated 1987).
In brackets after ≈: the same amount, converted by molar mass.

Tests used:
Assay type in all cases: cell-based
[1] = tested on: Salmonella enteritidis G 14; assay: Antibacterial activity, agar-dilution MIC, organism No. 12; conditions: Salmonella enterica, ENTERITIDIS; Organism No. 12, bouillon-agar; read-out: Minimum Inhibitory Concentration
Method in brief: (§1)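 Values come from agar-dilution plates prepared with bouillon agar; they represent the least specimen concentration (μg/ml of medium) giving inhibition.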

[2] = tested on: Klebsiella pneumoniae PCI-602; assay: Antibacterial activity, agar-dilution MIC, organism No. 7; conditions: Klebsiella pneumoniae, PCI602; Organism No. 7, bouillon-agar; read-out: Minimum Inhibitory Concentration
Method in brief: as §1

Enterobacter cloacae 963 = assay: Antibacterial activity, agar-dilution MIC, organism No. 24; conditions: Enterobacter cloacae, 963; Organism No. 24, bouillon-agar; read-out: Minimum Inhibitory Concentration
Method in brief: as §1

[3] = tested on: Staphylococcus aureus FDA 209PJc-1; assay: Antibacterial activity, agar-dilution MIC, organism No. 1; conditions: Staphylococcus aureus, FDA209PJC1; Organism No. 1, bouillon-agar; read-out: Minimum Inhibitory Concentration
Method in brief: as §1

Proteus vulgaris HX-19 = assay: Antibacterial activity, agar-dilution MIC, organism No. 21; conditions: Proteus vulgaris, HX19; Organism No. 21, bouillon-agar; read-out: Minimum Inhibitory Concentration
Method in brief: as §1

[4] = tested on: Staphylococcus aureus Terajima; assay: Antibacterial activity, agar-dilution MIC, organism No. 2; conditions: Staphylococcus aureus; Organism No. 2, bouillon-agar; read-out: Minimum Inhibitory Concentration
Method in brief: as §1

[5] = tested on: Escherichia coli K12 C600 IAM 1264; assay: Antibacterial activity, agar-dilution MIC, organism No. 6; conditions: Escherichia coli, IAM1264; Organism No. 6, bouillon-agar; read-out: Minimum Inhibitory Concentration
Method in brief: as §1

[6] = tested on: Streptococcus pyogenes IFO 3340; assay: Antibacterial activity, agar-dilution MIC, organism No. 26; conditions: Streptococcus pyogenes, IFO3340; Organism No. 26, bouillon-agar; read-out: Minimum Inhibitory Concentration
Method in brief: as §1

[7] = tested on: Pseudomonas aeruginosa NCTC 10490; assay: Antibacterial activity, agar-dilution MIC, organism No. 16; conditions: Pseudomonas aeruginosa, NCTC10490; Organism No. 16, bouillon-agar; read-out: Minimum Inhibitory Concentration
Method in brief: as §1

[8] = tested on: Salmonella paratyphi-A 1015; assay: Antibacterial activity, agar-dilution MIC, organism No. 10; conditions: Salmonella enterica, PARATYPHI, read-out: Minimum Inhibitory Concentration
Method in brief: as §1

[9] = tested on: Escherichia coli NIHJ-JC-2; assay: Antibacterial activity, agar-dilution MIC, organism No. 5; conditions: Escherichia coli, NIHJJC2; Organism No. 5, bouillon-agar; read-out: Minimum Inhibitory Concentration
Method in brief: as §1

[10] = tested on: Pseudomonas aeruginosa IFO 3445; assay: Antibacterial activity, agar-dilution MIC, organism No. 15; conditions: Pseudomonas aeruginosa, IFO3445; Organism No. 15, bouillon-agar; read-out: Minimum Inhibitory Concentration
Method in brief: as §1

Proteus vulgaris OX-19 = assay: Antibacterial activity, agar-dilution MIC, organism No. 20; conditions: Proteus vulgaris, OX19; Organism No. 20, bouillon-agar; read-out: Minimum Inhibitory Concentration
Method in brief: as §1

[11] = tested on: Streptococcus faecium IFO 3826; assay: Antibacterial activity, agar-dilution MIC, organism No. 27; conditions: Enterococcus faecium, IFO3826; Organism No. 27, bouillon-agar; read-out: Minimum Inhibitory Concentration
Method in brief: as §1

[12] = tested on: Enterobacter aerogenes ATCC 13048; assay: Antibacterial activity, agar-dilution MIC, organism No. 23; conditions: Klebsiella aerogenes, ATCC13048; Organism No. 23, bouillon-agar; read-out: Minimum Inhibitory Concentration
Method in brief: as §1

[13] = tested on: Salmonella typhimurium IID 971; assay: Antibacterial activity, agar-dilution MIC, organism No. 8; conditions: Salmonella enterica; Organism No. 8, bouillon-agar; read-out: Minimum Inhibitory Concentration
Method in brief: as §1

[14] = tested on: Streptococcus pyogenes Cook; assay: Antibacterial activity, agar-dilution MIC, organism No. 4; conditions: Streptococcus pyogenes; Organism No. 4, bouillon-agar; read-out: Minimum Inhibitory Concentration
Method in brief: as §1

[15] = tested on: Pseudomonas aeruginosa PAO 1; assay: Antibacterial activity, agar-dilution MIC, organism No. 17; conditions: Pseudomonas aeruginosa, PAO1; Organism No. 17, bouillon-agar; read-out: Minimum Inhibitory Concentration
Method in brief: as §1

[16] = tested on: Proteus morganii IFO 3848; assay: Antibacterial activity, agar-dilution MIC, organism No. 18; conditions: Morganella morganii, IFO3848; Organism No. 18, bouillon-agar; read-out: Minimum Inhibitory Concentration
Method in brief: as §1

Salmonella typhi 901 = assay: Antibacterial activity, agar-dilution MIC, organism No. 9; conditions: Salmonella enterica, TYPHI, read-out: Minimum Inhibitory Concentration
Method in brief: as §1

[17] = tested on: Serratia marcescens IAM 1184; assay: Antibacterial activity, agar-dilution MIC, organism No. 13; conditions: Serratia marcescens, IAM1184; Organism No. 13, bouillon-agar; read-out: Minimum Inhibitory Concentration
Method in brief: as §1

[18] = tested on: Staphylococcus aureus MS 353; assay: Antibacterial activity, agar-dilution MIC, organism No. 3; conditions: Staphylococcus aureus, MS353; Organism No. 3, bouillon-agar; read-out: Minimum Inhibitory Concentration
Method in brief: as §1

[19] = tested on: Bacillus subtilis ATCC 6633; assay: Antibacterial activity, agar-dilution MIC, organism No. 14; conditions: Bacillus subtilis, ATCC6633; Organism No. 14, bouillon-agar; read-out: Minimum Inhibitory Concentration
Method in brief: as §1

[20] = tested on: Micrococcus luteus ATCC 9341; assay: Antibacterial activity, agar-dilution MIC, organism No. 25; conditions: Micrococcus luteus, ATCC9341; Organism No. 25, bouillon-agar; read-out: Minimum Inhibitory Concentration
Method in brief: as §1

[21] = tested on: Proteus rettgeri IFO 3850; assay: Antibacterial activity, agar-dilution MIC, organism No. 22; conditions: Providencia rettgeri, IFO3850; Organism No. 22, bouillon-agar; read-out: Minimum Inhibitory Concentration
Method in brief: as §1

[22] = tested on: Aspergillus niger IFO 6342; assay: Antifungal activity, agar-dilution MIC, organism No. 30; conditions: Aspergillus niger, IFO6342; Organism No. 30, bouillon-agar; read-out: Minimum Inhibitory Concentration
Method in brief: as §1

[23] = tested on: Proteus mirabilis IFO 3849; assay: Antibacterial activity, agar-dilution MIC, organism No. 19; conditions: Proteus mirabilis, IFO3849; Organism No. 19, bouillon-agar; read-out: Minimum Inhibitory Concentration
Method in brief: as §1

[24] = tested on: Candida albicans IAM 4905; assay: Antifungal activity, agar-dilution MIC, organism No. 29; conditions: Candida albicans, IAM4905; Organism No. 29, bouillon-agar; read-out: Minimum Inhibitory Concentration
Method in brief: as §1

[25] = tested on: Mycoplasma pneumoniae IID817; assay: Antimycoplasmal activity, MIC by phenol red colour change, organism No. 28; conditions: Mycoplasma, IID817; Organism No. 28, PPLO broth + 1% glucose, 37° C.; read-out: Minimum Inhibitory Concentration (MIC)
Procedure: Mycoplasma pneumoniae IID817 was used as the test microorganism in a culture medium prepared by adding 1% of glucose to "PPLO broth (manufactured by Difco Co.) liquid culture medium" at 37° C. with phenol red as an indicator, thereby culturing the test microorganism.

[26] = tested on: Salmonella shottmuelleri 8006; assay: Antibacterial activity, agar-dilution MIC, organism No. 11; conditions: Salmonella, 8006; Organism No. 11, bouillon-agar; read-out: Minimum Inhibitory Concentration
Method in brief: as §1

SMILES | MIC [1] [µg/mL] | MIC [2] [µg/mL] | MIC (Enterobacter cloacae 963) [µg/mL] | MIC [3] [µg/mL] | MIC (Proteus vulgaris HX-19) [µg/mL] | MIC [4] [µg/mL] | MIC [5] [µg/mL] | MIC [6] [µg/mL] | MIC [7] [µg/mL] | MIC [8] [µg/mL] | MIC [9] [µg/mL] | MIC [10] [µg/mL] | MIC (Proteus vulgaris OX-19) [µg/mL] | MIC [11] [µg/mL] | MIC [12] [µg/mL] | MIC [13] [µg/mL] | MIC [14] [µg/mL] | MIC [15] [µg/mL] | MIC [16] [µg/mL] | MIC (Salmonella typhi 901) [µg/mL] | further results
[C-]#[N+]C12CC3(/C=C/C(=O)OCc4ccc([N+](=O)[O-])cc4)OC3C1O2 (stereo not drawn) [compound 15] | 50 (≈ 152 µM) | 12.5 (≈ 38.1 µM) | > 100 | 25 (≈ 76.2 µM) | < 0.1 | 50 (≈ 152 µM) | 50 (≈ 152 µM) | 50 (≈ 152 µM) | > 100 | 25 (≈ 76.2 µM) | 50 (≈ 152 µM) | > 100 | 6.25 (≈ 19 µM) | 25 (≈ 76.2 µM) | > 100 | 50 (≈ 152 µM) | 50 (≈ 152 µM) | > 100 | 25 (≈ 76.2 µM) | 25 (≈ 76.2 µM) | MIC [17]: > 100 µg/mL; MIC [18]: 25 µg/mL (≈ 76.2 µM); MIC [19]: 50 µg/mL (≈ 152 µM); MIC [20]: < 0.1 µg/mL; MIC [21]: > 100 µg/mL; MIC [22]: 6.25 µg/mL (≈ 19 µM); MIC [23]: 100 µg/mL (≈ 305 µM); MIC [24]: 6.25 µg/mL (≈ 19 µM); MIC [25]: 12 µg/mL; MIC [26]: 12.5 µg/mL (≈ 38.1 µM)
[C-]#[N+]C12CC3(/C=C/C(=O)Nc4cccc(N)c4)OC3C1O2 (stereo not drawn) [compound 60] | 6.25 (≈ 22.1 µM) | 1.56 (≈ 5.51 µM) | 200 (≈ 706 µM) | 3.13 (≈ 11 µM) | 0.39 (≈ 1.38 µM) | 12.5 (≈ 44.1 µM) | 25 (≈ 88.2 µM) | 3.13 (≈ 11 µM) | > 200 | 3.13 (≈ 11 µM) | 25 (≈ 88.2 µM) | > 200 | 0.39 (≈ 1.38 µM) | 50 (≈ 176 µM) | > 200 | 12.5 (≈ 44.1 µM) | 25 (≈ 88.2 µM) | > 200 | 1.56 (≈ 5.51 µM) | 3.13 (≈ 11 µM) | MIC [17]: 200 µg/mL (≈ 706 µM); MIC [18]: 3.13 µg/mL (≈ 11 µM); MIC [19]: 12.5 µg/mL (≈ 44.1 µM); MIC [20]: 0.39 µg/mL (≈ 1.38 µM); MIC [21]: > 200 µg/mL; MIC [22]: 100 µg/mL (≈ 353 µM); MIC [23]: > 200 µg/mL; MIC [24]: 25 µg/mL (≈ 88.2 µM); MIC [25]: < 0.2 µg/mL; MIC [26]: 3.13 µg/mL (≈ 11 µM)
[C-]#[N+]C12CC3(/C=C/C(=O)OCc4cccc([N+](=O)[O-])c4)OC3C1O2 (stereo not drawn) [compound 14] | > 200 | 200 (≈ 609 µM) | > 200 | 200 (≈ 609 µM) | 12.5 (≈ 38.1 µM) | 200 (≈ 609 µM) | > 200 | > 200 | > 200 | 200 (≈ 609 µM) | > 200 | > 200 | 200 (≈ 609 µM) | 200 (≈ 609 µM) | > 200 | > 200 | > 200 | > 200 | 200 (≈ 609 µM) | 200 (≈ 609 µM) | MIC [17]: > 200 µg/mL; MIC [18]: 200 µg/mL (≈ 609 µM); MIC [19]: 200 µg/mL (≈ 609 µM); MIC [20]: 0.78 µg/mL (≈ 2.38 µM); MIC [21]: > 200 µg/mL; MIC [22]: 25 µg/mL (≈ 76.2 µM); MIC [23]: > 200 µg/mL; MIC [24]: 12.5 µg/mL (≈ 38.1 µM); MIC [25]: 3.13 µg/mL; MIC [26]: 200 µg/mL (≈ 609 µM)
